Where “and” joins values, the source holds several entries; their conditions need not be identical. Identical values can stand only once.
Columns and labels:
Assay type in all cases: in vivo, human
[1] = test system: mild to moderate AD patients; experiment: Phase 3 trial in mild to moderate AD: ADAS-cog change from baseline
Source text: (§1) The co-primary efficacy outcomes were change from baseline in 11-item Alzheimer's Disease Assessment Scale—cognitive subscale (ADAS-cog) and the 23-item Alzheimer's Disease Cooperative Study Activities of Daily Living (ADCS-ADL). Magnetic resonance imaging (MRI) volumetry was chosen as the principal secondary outcome to support a potential effect on the rate of brain atrophy (Fox et al., 1997; Ridha et al., 2008). Change in Lateral Ventricular Volume (LVV), as measured by the Ventricular Boundary Shift Integral (VBSI), (Salloway et al., 2014) was chosen as the principal measure as it provides high-contrast boundaries for measurement and is less affected by motion artefacts than whole brain or smaller structures. Key supportive topographical measures (temporo-parietal (TPV) and hippocampal volume (HV)) are also reported.
(§2) Patients were recruited at 115 sites across 16 countries between January 2013 and August 2014. Enrolment of approximately 833 patients was targeted, with 891 patients actually recruited, in order to obtain data on approximately 500 patients completing the study, assuming a 30-40% drop-out rate. […] Adult caregiver(s) were required to participate. Concomitant use of AChEIs and/or memantine was permitted, provided the patient had been taking the medication(s) for […], with no changes to the dosage for 26 weeks prior to screening. Concomitant use of serotonergic antidepressant medication was permitted, but patients were monitored closely using a targeted rating scale derived from 4 published diagnostic criteria (Alusik et al., 2014) due to a theoretical potential for serotonin syndrome (Ramsay et al., 2007). […] Because MT^+ in high doses can induce methaemoglobinaemia, subjects with glucose-6-phosphate dehydrogenase deficiency or who were otherwise at haematological risk were excluded. Other inclusion/exclusion criteria are provided in the Supplementary Materials.
(§3) Patients were randomised at baseline to LMTM 75 mg b.i.d. or 125 mg b.i.d. (expressed as MT base equivalent) or control in a 3:3:4 ratio. The randomisation was stratified according to geographical region (3 levels: North America, Europe, rest of world), use of AD-labelled co-medications (2 levels, using or not using) and severity (2 levels, moderate MMSE 14-19 inclusive, mild MMSE 20-26 inclusive). Patients in the control arm received a dose of 4 mg b.i.d. to maintain blinding.
(§4) ADAS-cog and ADCS-ADL assessments were performed at baseline and every 13 weeks thereafter, with change at 65 weeks (the final on-treatment visit) the primary efficacy measures. These were repeated at the final off-treatment follow-up visit at Week 69. Secondary efficacy measures included Clinical Global Impression of Change (ADCS-CGIC, administered by an independent rater); MMSE, administered on screening and at Weeks 26, 52, 65 and 69. Brain MRI scans were performed at baseline/screening and every 13 weeks using a standardized protocol including volumetric 3D T1-weighted data consistent with ADNI recommendations, FLAIR, T2* Gradient Echo and T2-weighted sequences. Diffusion-Weighted Imaging was also available at screening in order to exclude patients with co-existing pathology that would lead to a diagnosis other than probable AD. Each site was first qualified ensuring standardised acquisition protocol, patient handling and data management. MRI data were centrally collected by Imaging Corelab (Bioclinica). Data were centrally reviewed by RadMD for eligibility and safety (Amyloid Related Imaging Abnormalities, or ARIA monitoring) on an on-going basis. Volumetric 3DT1 data were also reviewed centrally in order to measure (using a boundary shift integral (BSI) technique; Salloway et al., 2014) change in LVV as principal secondary outcome measure, and as exploratory endpoints temporo-parietal volume (TPV), whole brain volume (WBV) and hippocampal volume (HV, estimated as the mean of left and right) (Wischik et al., 2016). […]

[2] = test system: mild to moderate AD patients; experiment: Phase 3 trial in mild to moderate AD: ADCS-ADL change from baseline
Source text: as §1, §2, §3, §4

[3] = test system: Mild AD patients; experiment: Further 18-month Phase 3 trial in mild AD
Protocol: To examine the potential efficacy of LMTM as monotherapy in non-randomised observational cohort analyses as modified primary outcomes in an 18-months Phase 3 trial in mild AD.
Mild AD patients (n=800) were randomly assigned to 100 mg twice a day or 4 mg twice a day.
The Statistical Analysis Plan was revised in light of Example 3 (which completed earlier) prior to database lock and unblinding, to compare the 100 mg twice a day as monotherapy subgroup (n=79) versus 4 mg twice a day as randomised (n=396), and 4 mg twice a day as monotherapy (n=76) versus 4 mg twice a day as add-on therapy (n=297), with strong control of family-wise type I error.
We therefore modified the primary analyses and treatment comparisons in the study described in this Example (prior to database lock and unblinding) to investigate whether the monotherapy differences could be confirmed as observational cohort comparisons defined as primary outcomes with strong control of family-wise type I error in the second independent study. The monotherapy cohort comparisons which were of particular interest in light of the earlier study were: (A) 100 mg twice a day a monotherapy compared with the controls as originally randomised, and (B) 4 mg twice a day as monotherapy compared with the same dose as add-on to standard AD treatments.

[4] = 75 mg b.i.d. monotherapy, 65 weeks
[5] = 125 mg b.i.d. monotherapy, 65 weeks
[6] = Table 2 primary analysis, 65 weeks, covariates additive, control arm (LMTM 4 mg b.i.d.)
[7] = Table 2 primary analysis, 65 weeks, 75 mg b.i.d.
[8] = Table 2 primary analysis, 65 weeks, 125 mg b.i.d.
[9] = Table 2 primary analysis, 65 weeks, patients not using AChEI/Mem (additive covariate)
[10] = Table 3, AChEI/Mem as interaction term, 65 weeks, 75 mg b.i.d. + AChEI/Mem
[11] = Table 3, AChEI/Mem as interaction term, 65 weeks, 75 mg b.i.d. monotherapy
[12] = Table 3, AChEI/Mem as interaction term, 65 weeks, 125 mg b.i.d. + AChEI/Mem
[13] = Table 3, AChEI/Mem as interaction term, 65 weeks, 125 mg b.i.d. monotherapy
[14] = Table 3, AChEI/Mem as interaction term, 65 weeks, control arm (4 mg b.i.d.)
[15] = Table 4 post-hoc, control-arm subjects, 4 mg b.i.d. + AChEI/Mem
[16] = Table 4 post-hoc, control-arm subjects, 4 mg b.i.d. monotherapy vs 4 mg b.i.d. + AChEI/Mem
[17] = Table 7, mild AD, 4 mg b.i.d. + AChEI/Mem (control-arm subjects)
[18] = Table 7, mild AD, 4 mg b.i.d. alone vs 4 mg b.i.d. + AChEI/Mem
[19] = Table 7, mild AD, 75 mg b.i.d. alone vs control arm as randomised
[20] = Table 7, mild AD, 125 mg b.i.d. alone vs control arm as randomised
[21] = Table 7, mild AD, control arm as randomised (4 mg b.i.d.)
[22] = Table 7, moderate AD, 4 mg b.i.d. + AChEI/Mem (control-arm subjects)
[23] = Table 7, moderate AD, 4 mg b.i.d. alone vs 4 mg b.i.d. + AChEI/Mem
[24] = Table 7, moderate AD, 75 mg b.i.d. alone vs control arm as randomised
[25] = Table 7, moderate AD, 125 mg b.i.d. alone vs control arm as randomised
[26] = Table 7, moderate AD, control arm as randomised (4 mg b.i.d.)
[27] = control arm (LMTM 4 mg b.i.d.), 12 months
[28] = mild patients, LMTM monotherapy

CN(C)c1ccc2c(c1)Sc1cc(N(C)C)ccc1N2 [LMTM, leuco-methythioninium bis(hydromethanesulfonate)]
ADAS-cog treatment effect as % of the decline over 65 weeks seen in the control arm (mean±SE) [1, 4]: 103%±23%
ADAS-cog treatment effect as % of the decline over 65 weeks seen in the control arm (mean±SE) [1, 5]: 83%±23%
ADAS-cog, Estimate (change from baseline) [1, 6]: 6.32 ADAS-cog units
ADAS-cog, Estimate (difference with respect to control) [1, 7]: −0.02 ADAS-cog units
ADAS-cog, Estimate (difference with respect to control) [1, 8]: −0.43 ADAS-cog units
ADAS-cog, Estimate (mean additive treatment benefit) [1, 9]: −2.30 ADAS-cog units
ADAS-cog, Estimate (difference vs control) [1, 10]: 1.02 ADAS-cog units
ADAS-cog, Estimate (difference vs control) [1, 11]: −6.25 ADAS-cog units
ADAS-cog, Estimate (difference vs control) [1, 12]: 0.50 ADAS-cog units
ADAS-cog, Estimate (difference vs control) [1, 13]: −5.79 ADAS-cog units
ADAS-cog, Estimate (change from baseline) [1, 14]: 5.98 ADAS-cog units
ADAS-cog, Estimate (change from baseline) [1, 15]: 6.79 ADAS-cog units
ADAS-cog, Estimate (difference) [1, 16]: −5.90 ADAS-cog units
ADAS-cog, Estimate (change from baseline) [1, 17]: 3.24 ADAS-cog units
ADAS-cog, Estimate (difference) [1, 18]: −6.41 ADAS-cog units
ADAS-cog, Estimate (difference) [1, 19]: −8.89 ADAS-cog units
ADAS-cog, Estimate (difference) [1, 20]: −5.03 ADAS-cog units
ADAS-cog, Estimate (change from baseline) [1, 21]: 2.27 ADAS-cog units
ADAS-cog, Estimate (change from baseline) [1, 22]: 8.49 ADAS-cog units
ADAS-cog, Estimate (difference) [1, 23]: −4.74 ADAS-cog units
ADAS-cog, Estimate (difference) [1, 24]: −2.01 ADAS-cog units
ADAS-cog, Estimate (difference) [1, 25]: −5.75 ADAS-cog units
ADAS-cog, Estimate (change from baseline) [1, 26]: 7.89 ADAS-cog units
ADAS-cog decline at 12 months (mean±se) [1, 27]: 3.85±0.47
Mean treatment benefit relative to control on ADAS-cog [1, 28]: 240%±41%
ADCS-ADL effect size as % of the decline over 65 weeks seen in the control arm [2, 4]: 82%±23%
ADCS-ADL effect size as % of the decline over 65 weeks seen in the control arm [2, 5]: 88%±23%
ADCS-ADL, Estimate (change from baseline) [2, 6]: −8.22 ADCS-ADL units
ADCS-ADL, Estimate (difference with respect to control) [2, 7]: −0.93 ADCS-ADL units
ADCS-ADL, Estimate (difference with respect to control) [2, 8]: −0.34 ADCS-ADL units
ADCS-ADL, Estimate (mean additive treatment benefit) [2, 9]: 2.00 ADCS-ADL units
ADCS-ADL, Estimate (difference vs control) [2, 10]: −2.16 ADCS-ADL units
ADCS-ADL, Estimate (difference vs control) [2, 11]: 6.48 ADCS-ADL units
ADCS-ADL, Estimate (difference vs control) [2, 12]: −1.62 ADCS-ADL units
ADCS-ADL, Estimate (difference vs control) [2, 13]: 6.92 ADCS-ADL units and 6.93 ADCS-ADL units
ADCS-ADL, Estimate (change from baseline) [2, 14]: −7.92 ADCS-ADL units
ADCS-ADL, Estimate (change from baseline) [2, 15]: −8.90 ADCS-ADL units
ADCS-ADL, Estimate (difference) [2, 16]: 7.19 ADCS-ADL units
ADCS-ADL, Estimate (change from baseline) [2, 17]: −3.86 ADCS-ADL units
ADCS-ADL, Estimate (difference) [2, 18]: 5.20 ADCS-ADL units
ADCS-ADL, Estimate (difference) [2, 19]: 4.65 ADCS-ADL units
ADCS-ADL, Estimate (difference) [2, 20]: 7.77 ADCS-ADL units
ADCS-ADL, Estimate (change from baseline) [2, 21]: −3.20 ADCS-ADL units
ADCS-ADL, Estimate (change from baseline) [2, 22]: −11.91 ADCS-ADL units
ADCS-ADL, Estimate (difference) [2, 23]: 7.70 ADCS-ADL units
ADCS-ADL, Estimate (difference) [2, 24]: 6.89 ADCS-ADL units
ADCS-ADL, Estimate (difference) [2, 25]: 5.53 ADCS-ADL units
ADCS-ADL, Estimate (change from baseline) [2, 26]: −10.93 ADCS-ADL units
ADCS-ADL decline at 12 months (mean±se) [2, 27]: −6.51±0.63
Mean treatment benefit relative to control on ADCS-ADL [2, 28]: 156%±39%
Withdrawal rate over 18 months ([3]; 4 mg twice a day): 25%
Withdrawal rate over 18 months ([3]; 100 mg twice a day): 46%
Revised analyses on ADAS-cog, ADCS-ADL, MRI atrophy and glucose uptake ([3]; 100 mg twice a day monotherapy vs 4 mg twice a day as randomised, 4 mg twice a day monotherapy vs add-on, 18 months): statistically significant at the required threshold of p<0.025
Annualised rate of whole brain atrophy ([3]; after LMTM as monotherapy for 9 months, within-cohort comparison): the rate was reduced to that reported for normal elderly controls

Source: patent US12310973B2, “Administration and dosage of diaminophenothiazines” (WisTa Laboratories Ltd., priority 2016, dated 2025)
